What was measured:
human DGKα = human DGKα (Homo sapiens (Human), UniProt P23743); test: DGKα Biochemical Activity Assay (ADP-Glo); conditions: recombinant DGKα 1 nM, 100 μM ATP, 18:1 DAG/POPS/octylglucoside micelles, 1 hour at 25° C.; geometric mean; read-out: HTBS DGKa 1X ATP KM IC50
Outline: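 Recombinant DGKα (1 nM final) was preincubated with compound for 15 min, then reacted for 1 h at 25 °C with 100 μM ATP and octylglucoside micelles of 0.85 mM 18:1 DAG and 6.75 mM POPS in pH 7.2 MOPS with 5 mM MgCl2. ADP formed was read by ADP-Glo luminescence. IC50 came from four-parameter fits normalized to DMSO and 50 μM CU3, and values were geometric means.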

[1] = system: Jurkat NFκB-luciferase cells; test: Jurkat NFκB-Luciferase Assay; type: cell-based; conditions: Homo sapiens; Jurkat NFκB-luciferase cells activated with anti-CD3 antibody (OKT3), 2.5 hrs at 37° C.; geometric mean; read-out: DGK NFKb Luciferase EC50
Outline: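 Jurkat NFκB-luciferase reporter cells stimulated on plate-bound anti-CD3 (5 ug/ml coating) with compound, 2.5 hrs at 37° C then 30 min at 25° C; luminescence read with One-Glo Ex. Normalized to DMSO (basal) and 1 micromolar compound (maximum) controls; EC50 from four-parameter fit, geometric mean across experiments.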

Chain of human DGKα (P23743 whole entry): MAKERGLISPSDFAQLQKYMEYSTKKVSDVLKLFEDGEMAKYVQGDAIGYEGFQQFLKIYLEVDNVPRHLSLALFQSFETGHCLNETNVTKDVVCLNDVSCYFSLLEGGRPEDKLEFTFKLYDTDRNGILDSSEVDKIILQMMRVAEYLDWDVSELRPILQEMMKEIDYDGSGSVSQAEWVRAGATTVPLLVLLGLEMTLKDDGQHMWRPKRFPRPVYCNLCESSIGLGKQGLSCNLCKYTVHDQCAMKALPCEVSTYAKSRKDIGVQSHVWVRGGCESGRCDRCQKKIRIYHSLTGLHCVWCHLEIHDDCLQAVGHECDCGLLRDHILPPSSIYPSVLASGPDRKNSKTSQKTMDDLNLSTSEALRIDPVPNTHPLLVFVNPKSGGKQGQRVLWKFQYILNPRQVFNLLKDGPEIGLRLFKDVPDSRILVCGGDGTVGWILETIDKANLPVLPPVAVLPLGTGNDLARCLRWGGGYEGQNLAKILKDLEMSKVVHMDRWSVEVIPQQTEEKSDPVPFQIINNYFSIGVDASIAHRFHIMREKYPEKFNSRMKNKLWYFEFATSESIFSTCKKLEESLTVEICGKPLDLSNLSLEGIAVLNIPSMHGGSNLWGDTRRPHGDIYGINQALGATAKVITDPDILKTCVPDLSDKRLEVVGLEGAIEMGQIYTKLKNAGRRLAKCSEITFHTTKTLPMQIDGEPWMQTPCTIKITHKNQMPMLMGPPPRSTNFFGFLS

Compound | IC50 (human DGKα) | EC50 [1]
CCC1(C#Cc2cccc(N(C)c3nc4nncn4c4ncc(F)cc34)c2)CC1 [Example 151, N-[3-[2-(1-ethylcyclopropyl)ethynyl]phenyl]-11-fluoro-N-methyl-2,4,5,7,13-pentazatricyclo[7.4.0.02,6]trideca-1(13),3,5,7,9,11-hexaen-8-amine] | 51.4 nM | 3.82 nM
CN(c1cccc(C#CC(C)(C)C)c1)c1nc2nncn2c2ncc(F)cc12 [Example 152] | 32 nM | 3.18 nM
CN(c1cccc(C#CC(C)(C)O)c1)c1nc2nncn2c2ncc(F)cc12 [Example 153] | 29.4 nM | 45.2 nM
CN(c1cccc(C#CC2(C(F)(F)F)CC2)c1)c1nc2nncn2c2ncc(F)cc12 [Example 154, 3-fluoro-N-methyl-N-(3-((1-(trifluoromethyl)cyclopropyl)ethynyl)phenyl)pyrido[3,2-e][1,2,4]triazolo[4,3-a]pyrimidin-5-amine] | 20.7 nM | 3.54 nM
CN(c1cccc(-c2ccc(C3CC3)cc2)c1)c1nc2nncn2c2ncc(F)cc12 [Example 155, N-(4′-cyclopropyl-[1,1′-biphenyl]-3-yl)-3-fluoro-N-methylpyrido[3,2-e][1,2,4]triazolo[4,3-a]pyrimidin-5-amine] | 17.2 nM | 0.707 nM
CN(c1cc(F)cc(C#CC2(C(F)(F)F)CC2)c1)c1nc2nncn2c2ncc(F)cc12 [Example 156, 3-fluoro-N-(3-fluoro-5-((1-(trifluoromethyl)cyclopropyl)ethynyl)phenyl)-N-methylpyrido[3,2-e][1,2,4]triazolo[4,3-a]pyrimidin-5-amine] | 10.7 nM | 2.69 nM
